US20200129622A1, “METHODS OF MAKING ANTIMICROBIAL BIOPOLYMER FROM SODIUM ALGINATE AND ALGAE EXTRACT USING AMINOGLYCOSIDES, AND METHODS OF USING THE SAME” (Colorado School of Mines, priority 2018, published 2020)
Counter-ions that a name gives are not always drawn.

Tested on: E. coli DH5α
Test: Antimicrobial activity by agar diffusion assay (zone of inhibition)
Assay type: cell-based
Parameters: unit not given here
Details: 50 μl of 10 mg/ml aqueous antibiotic stock in agar well; 37° C., 18 hr
Experimental: Antimicrobial activity of polymers was checked against E. coli DH5α using agar diffusion assay. Single colony of E. coli was inoculated in 10 ml of Luria Broth (LB) and incubated till OD600 reached 0.5 (log-phase culture) and 100 μl of bacterial culture was spread over LB agar plates. To check the antimicrobial activity of the antibiotics, wells were made by punching a hole in the LB agar plates. For reference plates, 50 μl of 10 mg/ml aqueous stock solution of each antibiotic was added in the wells as shown in the top row of FIG. 6.
For experiments with alginate polymers, polymer pellets were washed three times with sterile DI water to remove any unbound free antibiotics. Each washing step included the addition of 500 μl of sterile DI water and centrifugation at 10000 rpm for 15 min. After washing, polymer pellets were placed at the center of the LB plates with E. coli DH5α. Plates were incubated at 37° C. for 18 hours (hr). The zone of inhibition, e.g., the area with no growth of bacteria around well or polymer pellet, was measured using a ruler as shown in the middle and bottom rows of FIG. 6 and in Table 3 below.
The antimicrobial property of alginateaminoglycoside polymer against E. coli DH5α was quantified by measurement of the zone of bacterial inhibition. In particular, aminoglycoside biopolymers were prepared in microcentrifuge tubes and after centrifugation, pellet was washed three times with sterile deionized water to remove free antibiotic. After washing, the polymer pellet was carefully removed using a spatula and placed at the center of the plate containing E. coli DH5α cells and incubated for 18 hr. After incubation for 18 hr, white polymer pellets became transparent to varying degrees.
In particular, circular zones of growth inhibition are visible after antibiotics and polymers were placed in wells at the centers of LB plates. […] While polymers made with KS, GS, and KDS became transparent, polymers made with TS and NS remained white.

Molecule | diameter of zone of inhibition, Antibiotic only
NC[C@H]1O[C@H](O[C@H]2[C@H](O)[C@@H](O[C@H]3O[C@H](CO)[C@@H](O)[C@H](N)[C@H]3O)[C@H](N)C[C@@H]2N)[C@H](O)[C@@H](O)[C@@H]1O [KS, kanamycin sulfate] | 3.4 ± 0.1
[H]/N=C(/N)N[C@H]1[C@H](O)[C@@H](O)[C@H](O[C@@H]2O[C@@H](C)[C@](O)(C=O)[C@H]2O[C@@H]2O[C@@H](CO)[C@H](O)[C@@H](O)[C@@H]2NC)[C@@H](N/C(N)=N\[H])[C@@H]1O [SS, streptomycin sulfate] | 3.5 ± 0.1
gentamicin sulfate [GS] | 2.9 ± 0.1
kanamycin disulfate [KDS] | 3.0 ± 0.1
neomycin sulfate [NS] | 3.0 ± 0.2
tobramycin sulfate [TS] | 3.1 ± 0.1
